In PubChem BioAssay (NCI):
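Where inhibition never reached the appropriate level, the endpoint shown equals the highest concentration tested. Otherwise, values were interpolated linearly from a five-concentration, 48-hour dose response in 96-well plates. TGI is the concentration that stops growth completely.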

How the values were obtained:
Assay in all cases: NCI tumour cell line growth inhibition, 48 h
[1] = system: MDA-N
[2] = system: EKVX NSCLC
[3] = system: A549 NSCLC
[4] = system: SK-OV-3 ovarian
[5] = system: SF-268 CNS
[6] = system: K-562 leukemia
[7] = system: UACC-257 melanoma
[8] = system: COLO 205 colon
[9] = system: HCT-15 colon
[10] = system: NCI-H522 lung
[11] = system: RPMI-8226 leukemia
[12] = system: HOP-62 NSCLC
[13] = system: NCI/ADR-RES ovarian
[14] = system: SR leukemia
[15] = system: HCT-116 colon
[16] = system: OVCAR-4 ovarian
[17] = system: MDA-MB-231 breast
[18] = system: SW-620 colon
[19] = system: U251 CNS
[20] = system: SK-MEL-5 melanoma
[21] = system: SNB-19 CNS
[22] = system: OVCAR-5 ovarian
[23] = system: SF-539 CNS
[24] = system: SNB-75 CNS
[25] = system: SF-295 CNS
[26] = system: MOLT-4 leukemia
[27] = system: OVCAR-8 ovarian
[28] = system: IGROV1 ovarian
[29] = system: T-47D breast
[30] = system: UO-31 renal
[31] = system: SN12C renal
[32] = system: NCI-H460 lung
[33] = system: MDA-MB-435
[34] = system: KM12 colon
[35] = system: SK-MEL-28 melanoma
[36] = system: HL-60(TB) leukemia
[37] = system: TK-10 renal
[38] = system: PC-3 prostate
[39] = system: MCF7 breast
[40] = system: HS 578T breast
[41] = system: ACHN renal
[42] = system: HCC-2998 colon
[43] = system: 786-0 renal
[44] = system: CCRF-CEM leukemia
[45] = system: M14 melanoma
[46] = system: SK-MEL-2 melanoma
[47] = system: OVCAR-3 ovarian
[48] = system: NCI-H226 lung
[49] = system: BT-549 breast
[50] = system: A498 renal
[51] = system: RXF 393 renal
[52] = system: LOX IMVI melanoma
[53] = system: NCI-H23 lung
[54] = system: MALME-3M melanoma
[55] = system: CAKI-1 renal
[56] = system: DU-145 prostate
[57] = system: UACC-62 melanoma

In the case of CC1SC(=O)SC1C (stereo not given), the TGI [1] is reported as over 100 µM, the TGI [2] is reported as over 100 µM and the TGI [3] is reported as over 100 µM. The TGI [4] was over 100 µM, the TGI [5] was over 100 µM and the TGI [6] was over 100 µM. The TGI [7] was over 100 µM, the TGI [8] was over 100 µM and the TGI [9] was over 100 µM. The TGI [10] was over 100 µM, the TGI [11] was over 100 µM and the TGI [12] was over 100 µM. It also gave a TGI [13] of over 100 µM, a TGI [14] of over 100 µM and a TGI [15] of over 100 µM. The TGI [16] was over 100 µM, the TGI [17] was over 100 µM and the TGI [18] was over 100 µM. The TGI [19] was over 100 µM, the TGI [20] was over 100 µM and the TGI [21] was over 100 µM. For the same molecule, the TGI [22] was over 100 µM, the TGI [23] was over 100 µM and the TGI [24] was over 100 µM. For the same molecule, the TGI [25] was over 100 µM, the TGI [26] was over 100 µM and the TGI [27] was over 100 µM. For the same molecule, the TGI [28] was over 100 µM, the TGI [29] was over 100 µM and the TGI [30] was over 100 µM. For the same molecule, the TGI [31] was over 100 µM, the TGI [32] was over 100 µM and the TGI [33] was over 100 µM. The TGI [34] was over 100 µM, the TGI [35] was over 100 µM and the TGI [36] was over 100 µM. It also gave a TGI [37] of over 100 µM, a TGI [38] of over 100 µM and a TGI [39] of over 100 µM. The TGI [40] was over 100 µM, the TGI [41] was over 100 µM and the TGI [42] was over 100 µM. The TGI [43] was over 100 µM, the TGI [44] was over 100 µM and the TGI [45] was over 100 µM.

COc1ccc2nc3ccc(OC)cc3c(SCC3CO3)c2c1 (stereo not given) showed a TGI [1] of 30.6 µM, a TGI [2] of 34.2 µM and a TGI [3] of over 100 µM. The TGI [4] was over 100 µM, the TGI [46] was 28.4 µM and the TGI [5] was 31.6 µM. For the same molecule, the TGI [47] was 28.5 µM, the TGI [6] was 54.1 µM and the TGI [7] was 29.8 µM. The TGI [8] was 41.8 µM, the TGI [9] was 33.6 µM and the TGI [10] was 33.2 µM. The TGI [11] was 74.6 µM, the TGI [48] was over 100 µM and the TGI [12] was over 100 µM. It also gave a TGI [13] of 38.5 µM, a TGI [14] of 80.4 µM and a TGI [15] of 22.7 µM. For the same molecule, the TGI [16] was 38.1 µM, the TGI [17] was 28.7 µM and the TGI [18] was 24.4 µM. For the same molecule, the TGI [19] was 27.1 µM, the TGI [49] was 30.4 µM and the TGI [20] was 33.5 µM. The TGI [21] was 80.4 µM, the TGI [22] was 69.3 µM and the TGI [23] was 23.7 µM. For the same molecule, the TGI [50] was over 100 µM, the TGI [24] was over 100 µM and the TGI [51] was 33.5 µM. For the same molecule, the TGI [25] was over 100 µM, the TGI [27] was 25.7 µM and the TGI [52] was 33.4 µM. It also gave a TGI [29] of 43.6 µM, a TGI [30] of 24.8 µM and a TGI [31] of 27.4 µM. For the same molecule, the TGI [32] was 31 µM, the TGI [53] was 35.4 µM and the TGI [33] was 40 µM. The TGI [34] was 34.4 µM, the TGI [35] was 33.5 µM and the TGI [37] was 25.8 µM. The TGI [38] was 28.6 µM, the TGI [39] was 26.6 µM and the TGI [41] was 21.7 µM. The TGI [42] was 29.7 µM, the TGI [54] was 30.5 µM and the TGI [55] was 19.1 µM. For the same molecule, the TGI [43] was 23.7 µM, the TGI [44] was over 100 µM and the TGI [45] was 29 µM.

Molecule CCCCCCCCNC(=S)/N=C/c1c(O)c2ccccc2oc1=O has a TGI [1] of 34.3 µM, a TGI [2] of 66.9 µM and a TGI [3] of 35.2 µM. The TGI [46] was 48 µM, the TGI [47] was 29.1 µM and the TGI [6] was 40.1 µM. It also gave a TGI [7] of 40.9 µM, a TGI [8] of 32.3 µM and a TGI [9] of 28.4 µM. The TGI [10] was 22.4 µM, the TGI [48] was 51.7 µM and the TGI [12] was 32.2 µM. For the same molecule, the TGI [13] was 47.4 µM, the TGI [15] was 31 µM and the TGI [16] was 29.4 µM. The TGI [17] was 32.4 µM, the TGI [20] was 30.4 µM and the TGI [56] was 33.6 µM. For the same molecule, the TGI [22] was 28.1 µM, the TGI [23] was 36.6 µM and the TGI [50] was 32.2 µM. The TGI [24] was 34.2 µM, the TGI [51] was 34.8 µM and the TGI [25] was 34 µM. The TGI [26] was 33.7 µM, the TGI [27] was 52.4 µM and the TGI [52] was 26 µM. It also gave a TGI [29] of over 100 µM, a TGI [31] of 38.7 µM and a TGI [32] of 30.3 µM. The TGI [53] was 39.7 µM, the TGI [34] was 29.1 µM and the TGI [35] was 31.1 µM. The TGI [38] was 28.5 µM, the TGI [41] was 29.5 µM and the TGI [42] was 26.7 µM. For the same molecule, the TGI [57] was 28.6 µM, the TGI [44] was 30.9 µM and the TGI [45] was 34.6 µM.
